For data set [1], the system named is Brine Shrimp (Artemia Salina). Nature of the data set: in vivo. Particulars: as Table 7 shows. As for the experimental part:
(§1) Brine shrimp eggs (Artemia salina) were obtained from Brine Shrimp Direct, Ogden, Utah and stored at 10° C. until used. Eggs (400 mg) were added to 1 l of deionized water containing 40 g of sea salts (Sigma Chemical Co., St. Louis, Mo.).
(§2) Serial dilutions were performed in 100 μl of seawater in triplicate in the wells of a 96-well microplate to give appropriate concentrations. Control wells for both water and DMSO were included with each experiment. […] The number of non-motile, and the total number of, naupli were counted in each well using a binocular microscope (10×).

Data set [2] can be described thus: in vivo. Particulars: Artemia salina (brine shrimp), in vivo, other: exposure in seawater in microplate wells. The protocol:
as §1, §2

Data set [3] is described as follows: OSI test of milkweed seed oil mixed with additive. Particulars: 1.0% additive, 130° C. From the text: (§3) A presently preferred method of determining oxidative stability of lipids and oils employs the Oxidative Stability Index (OSI), which determines the oxidative stability of an oil by passing air through a sample under stringent temperature control. (Firestone, Oxidative Stability Index (OSI): Official Methods of Recommended Practices of the American Oil Chemists' Society (AOCS), 4th Ed. American Oil Chemists Society, Champaign, Ill., AOCS Official Method Cd 12b-92, 1993.) In this method, a stream of air is passed through the oil sample, which aids in the rapid degradation of the triglyceride into volatile organic acids. The air stream flushes the volatile acids from the oil into a conductivity cell containing water where the acids are solubilized. These acids, once dissolved in the water solution, disassociate into ions, thus changing the conductivity of the water. Therefore, a continuous measure of the conductivity of the cell by computer will indicate when a rapid rise in the conductivity occurs that corresponds to the induction point, oxidative failure of the sample. […]
(§4) Unless otherwise stated, Oxidative Stability Index (OSI) values were determined on 5.00 ±0.05 g lipid or oil samples in triplicate according to AOCS Official Method Cd 12b-92 (AOCS, 1993) at 90° C., 110° C. and/or 130° C. on an oxidative stability instrument manufactured by Omnion (Rockland, Mass.). […]

Data set [4] is described as follows: OSI test of soybean oil mixed with additive. Conditions: 1.0% additive, 130° C.
Description: as §3, §4

Data set [5] in a line: Decomposition temperature by differential scanning calorimetry. It is filed as physicochemical. Conditions: DSC, onset of decrease in slope of temperature-heat flow curve; unit not given (scans in ° C.). The protocol:
A dual cell Perkin Elmer differential scanning calorimeter (PE DSC 7, Norwalk, Conn.) was used to determine the thermal transitions of the compounds. All scans were carried out from 30° C. to 200° C. at a heating and cooling rate of 10° C./minute and 40° C./min, respectively, except for 1-(3-methoxybenzyl)-3-(1-propenyl) thiourea, for which the scans were carried out from 0° C. to 200° C. at a heating rate of 10° C./min, and 1-(3-methoxybenzyl)-3-octadecyl thiourea, for which both the heating and cooling rates were 10° C./min. 1,3-di(3-methoxybenzyl) thiourea and 1-(3-methoxybenzyl)-3-dodecyl thiourea were heated to 300° C., and 1-(3-methoxybenzyl)-3-(4-methoxybenzoyl) thiourea was heated to 250° C. to determine the decomposition temperature. The decomposition temperature was taken as the onset of a decrease in the slope of the temperature-heat flow DSC curve. The first heating curve was recorded in all cases, and liquid nitrogen was used to quench the samples after the first heating.
On the technique in general: In DSC, transitions show as peaks or steps in heat flow.

Data set [6] in a line: Solubility in refined meadowfoam seed oil (HPLC). The data set is classed as physicochemical. Conditions: oil or lipid, thermodynamic from solid, cooled to room temperature overnight. The protocol:
Typical retention times were 7–9 min for the thioureas. Samples were weighed accurately (about 0.1 g) into 1.00 g of refined meadowfoam seed oil and heated to temperature (either 30° C. or 50° C.) for 4 h with occasional shaking. The samples were cooled to room temperature overnight, centrifuged and 0.3 g of the supernatant oil was removed and diluted with 1 ml CHCl3 for testing.

Data set [7] in a line: Behaviour on addition of water to DMSO solution (sample preparation). It is filed as physicochemical. Conditions: dissolved in 50 μl DMSO, water added to make 1 mg/ml. As for the experimental part: Test compounds (1–2 mg) were originally made up at a concentration of 1 mg/ml in artificial seawater, except for water insoluble compounds, which were dissolved in 50 μl of dimethyl sulfoxide (DMSO) prior to adding enough water to make a 1 mg/ml solution. Serial dilutions were performed in 100 μl of seawater in triplicate in the wells of a 96-well microplate to give appropriate concentrations. Control wells for both water and DMSO were included with each experiment. A 100 μl solution of naupli (10–30) was added to each well, and the covered plate was incubated for 24 h at 27° C. The number of non-motile, and the total number of, naupli were counted in each well using a binocular microscope (10×). LC50 values were then calculated by Probit analysis (Finney, D. J., 1971, “Probit Analysis,” 3rd Ed.; University Press: Cambridge [Eng.]).

Data set [8] can be described thus: OSI test of high oleic sunflower oil mixed with additive. Particulars: 1.0% additive, 130° C.
Description: as §3, §4

SMILES strings stand for the structures. Values after ≈ are worked out from the molar mass of the structure shown. Like-named read-outs stand apart in the source and are kept apart here. Where only a bound is given, the exact number is not on record here.

As a reminder, the LC50 is the concentration that kills 50% of the test population. Low readings indicate a more lethal substance, high ones a less lethal substance. One may read the solubility as the dissolved amount per volume that the medium holds.

For the molecule `COc1cccc(CNC(=S)NCc2cccc(OC)c2)c1` [1,3-di(3-methoxybenzyl) thiourea], the “toxicity against brine shrimp, in words” value in data set [1] is given as “very low”. In data set [2], the LC50 at 24 h is more than 1000 µg/mL. Further, in data set [3], the OSI Time turned out to be 2.78 h and the “improvement of OSI time compared to milkweed oil alone” value stood at 654%. In addition, in data set [4], the OSI Time came out at 6.4 h and the “improvement of OSI time compared to soybean oil alone” value worked out at 831%. Moreover, the Decomposition Temperature in data set [5] is 265 °C. In data set [6] (heated to 30° C. for 4 h, read-out: Solubility at 30° C.), the solubility at 4 h is 2480 µg/mL (≈ 7.84 mM). Also, in data set [6] (heated to 50° C. for 4 h, read-out: Solubility at 50° C.), the solubility at 4 h turned out to be 3520 µg/mL (≈ 11.1 mM). Further, the “behaviour upon the addition of water” value in data set [7] is listed as “precipitated out of solution”. In data set [8], the OSI Time was 157 h and the “improvement of OSI time compared to sunflower oil alone” value is 1720%.

The values are drawn from patent publication US7169815B2, “3-methoxybenzyl thiourea derivatives and improved lipid compositions containing same” (The United States of America as represented by the …, priority 2000, dated 2007).
